Source: US20220362276A1, “Small Molecule Inhibitors of Viral Replication” (The Trustees of Princeton University, priority 2019, published 2022)
“Also recorded” adds a separate entry of the source.

Columns and labels:
[1] = test system: full-length KernowC1p6; assay: RT-qPCR of HEV RNA, full-length KernowC1p6 in Huh7 cells; assay type: cell-based, hepatitis E virus; details: 6.25-25 μM isocotoin, day 6
Procedure: Quantification of HEV RNA by RT-qPCR Assay. Huh7 cells were seeded 42,000 cells/well in 24-well plates. One day post-seeding, the cells were transfected with 10 ng/well KernowC1p6 or KernowC1p6-GAD in vitro transcribed RNA. The next day, the medium on the cells transfected with KernowC1p6 was changed to 0.1% DMSO medium containing 25 μM, 12.5 μM, 6.25 μM, or 0 μM isocotoin. The negative control cells transfected with KernowC1p6-GAD were maintained in medium with 0.1% DMSO. The media on the cells was changed every 2 days to fresh drug-containing or DMSO-containing media. On day 6, cells were harvested and lysed in RLT buffer using 350 μL per well. Cell lysates were homogenized by pipetting 6-7 times with a needle syringe. Total RNA was extracted using BioBasic RNA MiniPreps SuperKit (Amherst, N.Y.). RT-qPCR was performed on the samples using qScript XLT 1-Step RT-qPCR ToughMix (Quanta Bio) according to the manufacturer's instructions. In vitro transcribed KernowC1p6 RNA of known concentration was serially diluted 1:10 and included as controls to generate a standard curve to calculate absolute RNA copies/μL in the samples.

[2] = test system: Huh7 cells; assay: ATP-based cell viability assay (CellTiterGlo); details: Huh7 cells, day 4
Procedure: Measurement of Cytotoxicity by CellTiterGlo Assay. […] Readout was performed using a Berthold luminometer.

[3] = test system: Jc1(p7nsGluc2A) (HCV); assay type: cell-based, hepatitis C virus; details: Gluc, RLU normalized to untreated
[4] = test system: p6/BSR-2A-ZsGreen replicon
[5] = test system: SHEV-3/Gluc (genotype 3, swine-derived); assay: Dose titration against SHEV-3/Gluc replicon; details: genotype 3, poor replicative capacity
[6] = test system: TW6196E/Gluc (genotype 4); assay: Dose titration against TW6196E/Gluc replicon; details: genotype 4, poor replicative capacity
[7] = test system: p6/Gluc[F470S]; assay: Dose titration against mutant replicon p6/Gluc[F470S]
[8] = test system: p6/Gluc[G1634R]; assay: Dose titration against mutant replicon p6/Gluc[G1634R]
[9] = target: T1, ABHD10 (Homo sapiens, UniProt Q9NUJ1); assay: Two-dimensional thermal proteome profiling (CETSA) in crude cell extract; details: isocotoin 0.5-30 μM, 37-66.3 °C
T1 sequence (Q9NUJ1 53-306): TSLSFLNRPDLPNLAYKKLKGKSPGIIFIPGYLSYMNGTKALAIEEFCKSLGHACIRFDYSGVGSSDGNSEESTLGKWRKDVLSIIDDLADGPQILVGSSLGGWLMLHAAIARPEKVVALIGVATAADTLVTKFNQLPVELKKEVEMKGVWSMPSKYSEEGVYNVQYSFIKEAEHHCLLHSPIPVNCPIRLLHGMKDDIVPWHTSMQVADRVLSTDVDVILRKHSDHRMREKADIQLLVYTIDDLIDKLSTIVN

[10] = target: T2, STOML2 (Homo sapiens, UniProt Q9UJZ1); assay: as above; details: isocotoin 0.5-30 μM, 37-66.3 °C
T2 sequence (Q9UJZ1 29-356): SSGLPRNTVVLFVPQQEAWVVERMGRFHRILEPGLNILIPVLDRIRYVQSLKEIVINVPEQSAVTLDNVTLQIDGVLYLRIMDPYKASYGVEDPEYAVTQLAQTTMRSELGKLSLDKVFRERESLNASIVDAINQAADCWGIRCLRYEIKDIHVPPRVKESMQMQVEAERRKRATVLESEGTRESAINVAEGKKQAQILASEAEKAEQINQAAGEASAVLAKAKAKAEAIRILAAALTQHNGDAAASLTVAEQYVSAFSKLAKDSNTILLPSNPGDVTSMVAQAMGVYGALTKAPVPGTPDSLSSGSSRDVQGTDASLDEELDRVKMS

[11] = target: T3, OTC (Homo sapiens, UniProt P00480); assay: as above; details: isocotoin 0.5-30 μM, 37-66.3 °C
T3 sequence (P00480 33-354): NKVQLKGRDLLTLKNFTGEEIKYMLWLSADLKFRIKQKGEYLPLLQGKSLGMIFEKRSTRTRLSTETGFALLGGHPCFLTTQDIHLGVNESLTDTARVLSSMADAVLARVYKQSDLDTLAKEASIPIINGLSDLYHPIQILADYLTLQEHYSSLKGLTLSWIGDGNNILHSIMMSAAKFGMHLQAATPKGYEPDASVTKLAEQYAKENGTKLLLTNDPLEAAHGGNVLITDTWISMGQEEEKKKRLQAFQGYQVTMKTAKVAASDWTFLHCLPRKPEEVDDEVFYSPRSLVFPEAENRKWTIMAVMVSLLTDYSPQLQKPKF

[12] = target: T4, HSPA14 (Homo sapiens, UniProt Q0VDF9); assay: as above; details: isocotoin 0.5-30 μM, 37-66.3 °C
T4 sequence (Q0VDF9 1-509): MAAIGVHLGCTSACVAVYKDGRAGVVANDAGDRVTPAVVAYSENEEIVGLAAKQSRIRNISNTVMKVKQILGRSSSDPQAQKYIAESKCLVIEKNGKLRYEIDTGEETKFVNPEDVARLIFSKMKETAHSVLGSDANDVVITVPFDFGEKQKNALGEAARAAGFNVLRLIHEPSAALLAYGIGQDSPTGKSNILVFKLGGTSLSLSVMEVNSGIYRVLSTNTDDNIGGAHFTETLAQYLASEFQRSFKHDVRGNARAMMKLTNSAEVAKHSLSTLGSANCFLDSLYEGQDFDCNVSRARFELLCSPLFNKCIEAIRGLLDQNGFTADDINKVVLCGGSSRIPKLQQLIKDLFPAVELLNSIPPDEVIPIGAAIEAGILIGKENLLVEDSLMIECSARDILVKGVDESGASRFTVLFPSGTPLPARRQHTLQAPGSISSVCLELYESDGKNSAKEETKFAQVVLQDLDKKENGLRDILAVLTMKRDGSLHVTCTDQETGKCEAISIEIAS

[13] = test system: HEV; assay: In vivo testing in HEV-infected human liver chimeric mice, viral RNA in stool and serum; details: 50 mg/kg daily intraperitoneally, 7 days

COc1cc(O)cc(O)c1C(=O)c1ccccc1 [isocotoin, 4-benzoyl-5-methoxybenzene-1,3-diol]
inhibition of full-length KernowC1p6 replication, in words [1]: dose-dependent manner; also recorded: inhibits replication | doses at which cytotoxicity was displayed [2]: ≥ 25 µM | doses up to which no cytotoxicity was displayed [2]: up to 12.5 μM | inhibition of HCV replication, in words [3]: dose-dependent inhibitory effects; also recorded: to a greater extent than ribavirin | toxicity to cells on passaging ([4]; 30 μM isocotoin dose): some toxicity | ZsGreen levels on passaging ([4]; 30 μM isocotoin, first few passages): sharp decrease in ZsGreen levels | inhibition of SHEV-3/Gluc replication, in words [5]: modest inhibitory effect; also recorded: inhibits replication | inhibition of TW6196E/Gluc replication, in words [6]: modest inhibitory effect; also recorded: inhibits replication | sensitivity of p6/Gluc[F470S], in words [7]: higher sensitivity to isocotoin than to ribavirin | sensitivity of p6/Gluc[G1634R], in words [8]: higher sensitivity to isocotoin than to ribavirin | soluble protein fraction of ABHD10 [9]: among hits showing the greatest increase in soluble protein fraction | soluble protein fraction of STOML2 [10]: among hits showing the greatest increase in soluble protein fraction | soluble protein fraction of OTC [11]: among hits showing the greatest increase in soluble protein fraction | thermal shift of HSPA14 [12]: did not produce a thermal shift | viral RNA levels in stool and serum pre- and post-treatment [13]: not a clear decrease in viral levels; also recorded: did not result in a reduction in viral titers
